experiment: half-life of thermal oxygen release (thermolysis) of endoperoxides in CDCl3 at 25° C.; format: physicochemical; conditions: CDCL3, 25° C.
Text: In certain aspect an oxygen generating biomaterial can comprise a fast release thermolytic endoperoxide, a slow release thermolytic endoperoxide, or a slow release thermolytic endoperoxide and a fast release endoperoxide. A biomaterial can further comprise a singlet oxygen quencher. […] The ti/2 half-life is temperature dependent. This aids in both storage and release. The ti/2 is longer the lower the storage temperatures. […] The endoperoxide oxygen-carrier is most conveniently prepared by photo-oxidation of a precursor aromatic organic compound. The structure of the endoperoxide-forming compound determines its thermal stability and thus how rapidly oxygen is released and precursor compound reformed (via a “retro-Diels-Alder reaction”) at any given temperature. At body temperature the half-life (ti/2) for thermal release of ^1O2 from an endoperoxide (also known as “thermolysis”) can range from seconds to days. By combining two or more endoperoxide compounds, one with a relatively slow release rate (long ti/2) at the working temperature, and one or more with faster release rates (short ti/2), it is possible to form delivery systems with a wide range of rates, durations, and profiles of oxygen generation to suit a variety of end-use applications. In some applications it is possible to design a system that could be recharged by photo-oxidizing the reformed precursor compound(s). FIG. 1 illustrates an example of the chemistry involved.

SMILES | ti/2 in hours as measured in the presence of CDCL3 at 25° C.
CC1=C(C)C2(C)OOC1(C)c1ccccc12 [1,2,3,4-tetramethylnaphthalene-1,4-endoperoxide] | indeterminant
CC1=CC2(C)OOC1(C)c1ccccc12 (centres unmarked) [1,2,4-trimethylnaphthalene-1,4-endoperoxide] | 70 h
Cc1cccc2c1C1(C)C=CC2(C)OO1 (centres unmarked) [1,4,5-trimethylnaphthalene-1,4-endoperoxide] | 290 h
CC12C=CC(C)(OO1)c1ccccc12 [1,4-dimethylnaphthalene-1,4-endoperoxide] | 5 h
Cc1cccc2c1C1(C)C=CC2OO1 (centres unmarked) [1,8-dimethylnaphthalene-1,4-endoperoxide] | 30 h

Reference: US10561763B2, “Oxygen generating biomaterial” (THE BOARD OF REGENTS OF THE UNIVERSITY OF TEXAS SYSTEM, priority 2013, dated 2020)
